{"source": "patent EP2819510B1", "about": "“ORGAN PERFUSION SYSTEM” (Rodos BioTarget GmbH, priority 2012, dated 2013)", "key": {"[1]": {"biological_target": "CYP2C9 (Homo sapiens, UniProt P11712)", "sequence (P11712 whole entry, the tested form may be a part)": "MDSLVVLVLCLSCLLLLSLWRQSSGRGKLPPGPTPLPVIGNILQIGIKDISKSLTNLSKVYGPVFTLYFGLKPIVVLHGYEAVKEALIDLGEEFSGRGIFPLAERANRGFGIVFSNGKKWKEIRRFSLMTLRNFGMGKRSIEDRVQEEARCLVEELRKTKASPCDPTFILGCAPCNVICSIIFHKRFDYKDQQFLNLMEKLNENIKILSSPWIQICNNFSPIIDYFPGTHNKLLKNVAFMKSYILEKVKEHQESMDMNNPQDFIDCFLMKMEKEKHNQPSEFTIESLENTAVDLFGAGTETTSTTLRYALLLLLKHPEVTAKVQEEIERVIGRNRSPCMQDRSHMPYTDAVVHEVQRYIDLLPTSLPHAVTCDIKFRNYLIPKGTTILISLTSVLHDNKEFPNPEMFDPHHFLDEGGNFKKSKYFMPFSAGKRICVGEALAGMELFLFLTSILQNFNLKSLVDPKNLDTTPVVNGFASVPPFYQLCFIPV", "assay": "CYP activity in perfused liver tissue, diclofenac substrate"}, "[2]": {"biological_target": "CYP3A4 (Homo sapiens, UniProt P08684)", "sequence (P08684 whole entry, the tested form may be a part)": "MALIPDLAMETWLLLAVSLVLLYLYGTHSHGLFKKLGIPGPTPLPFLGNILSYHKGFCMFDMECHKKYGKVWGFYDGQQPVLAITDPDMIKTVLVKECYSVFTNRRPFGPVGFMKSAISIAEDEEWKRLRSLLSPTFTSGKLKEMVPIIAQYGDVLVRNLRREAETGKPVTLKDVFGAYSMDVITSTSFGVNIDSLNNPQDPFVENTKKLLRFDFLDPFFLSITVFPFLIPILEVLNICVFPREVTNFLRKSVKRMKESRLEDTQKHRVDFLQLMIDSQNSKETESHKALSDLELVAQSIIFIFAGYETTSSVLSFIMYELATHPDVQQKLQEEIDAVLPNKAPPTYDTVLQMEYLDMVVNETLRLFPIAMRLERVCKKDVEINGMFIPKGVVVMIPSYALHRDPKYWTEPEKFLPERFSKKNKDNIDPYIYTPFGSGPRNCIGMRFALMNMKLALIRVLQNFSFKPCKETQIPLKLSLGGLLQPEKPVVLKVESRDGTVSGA", "assay": "CYP activity in perfused liver tissue, midazolam substrate"}, "[3]": {"settings": "initial 30-min interval, dropped continuously thereafter"}, "[4]": {"settings": "late (1-6 h), cirrhotic vs. non-cirrhotic liver"}}}
{"smiles": "O=C(O)Cc1ccccc1Nc1c(Cl)cc(O)cc1Cl", "note": "[OH-diclofenac, 4'-hydroxydiclofenac]", "values": [{"measurement": "formation of phase-I metabolite", "setting": "[1]; [3]", "value": "formed quite rapidly"}, {"measurement": "AUC of phase-I product, CL tissue higher than NC tissue", "setting": "[1]; [4]", "value": 26.9, "unit": "%"}]}
{"smiles": "OCc1ncc2n1-c1ccc(Cl)cc1C(c1ccccc1F)=NC2", "note": "[OH-midazolam, 1'-hydroxymidazolam]", "values": [{"measurement": "formation of phase-I metabolite", "setting": "[2]; [3]", "value": "formed quite rapidly"}, {"measurement": "AUC of phase-I product, CL tissue higher than NC tissue", "setting": "[2]; [4]", "value": 53.8, "unit": "%"}]}
